One assay has as its system D. immitis microfilariae. Put plainly: Dirofilaria immitis, microfilariae (DiMF) in vitro motility assay. The format is cell-based. The conditions noted are these: Dirofilaria immitis, 72 h, read-out: DiMF minimally effective dose (MEC).
The test system of another assay is Haemonchus contortus L3. As to the kind of experiment: microbe, parasite or virus in culture. It counts as cell-based. As to conditions: Haemonchus contortus, 96 h, read-out: HcL3 Minimal Effective Concentration (MEC).

This is an account of results in patent US10570129B2 (Zoetis Services LLC, priority 2015, dated 2020).

Some results are limits rather than exact numbers.

For `O=C(NCc1ccnc(Cl)c1)n1c2c(c3ccc(OC(F)(F)F)cc31)CN(C/C=C/c1ccc(F)c(Cl)c1)CC2` [Example 348, (E)-2-(3-(3-chloro-4-fluorophenyl)allyl)-N-((2-chloropyridin-4-yl)methyl)-7-(trifluoromethoxy)-1,2,3,4-tetrahydro-5H-pyrido[4,3-b]indole-5-carboxamide], the minimal effective concentration amounted to 24.5 µM in the assay on D. immitis microfilariae and 1 µM in the assay with Haemonchus contortus L3.
As to `O=C(NCc1ccnc(Cl)c1)n1c2c(c3ccc(OC(F)(F)F)cc31)CN(C/C=C/c1cc(F)c(F)c(F)c1)CC2` [Example 350, (E)-N-((2-chloropyridin-4-yl)methyl)-7-(trifluoromethoxy)-2-(3-(3,4,5-trifluorophenyl)allyl)-1,2,3,4-tetrahydro-5H-pyrido[4,3-b]indole-5-carboxamide], the minimal effective concentration in the assay with D. immitis microfilariae was 1.3 µM; in the assay with Haemonchus contortus L3 it was 0.2 µM.
As to `N#Cc1ccc(/C=C/CN2CCc3c(c4ccc(OC(F)(F)F)cc4n3C(=O)NCc3ccnc(Cl)c3)C2)cc1` [Example 351, (E)-N-((2-chloropyridin-4-yl)methyl)-2-(3-(4-cyanophenyl)allyl)-7-(trifluoromethoxy)-1,2,3,4-tetrahydro-5H-pyrido[4,3-b]indole-5-carboxamide], the results for the minimal effective concentration in the assay with D. immitis microfilariae and with Haemonchus contortus L3 were 32.3 µM and 0.7 µM, respectively.
For `N#Cc1ccc(/C=C/CN2CCc3c(c4c(OC(F)(F)F)cccc4n3C(=O)NCc3ccnc(Cl)c3)C2)cc1` [Example 352, (E)-N-((2-chloropyridin-4-yl)methyl)-2-(3-(4-cyanophenyl)allyl)-9-(trifluoromethoxy)-1,2,3,4-tetrahydro-5H-pyrido[4,3-b]indole-5-carboxamide], in that order: 5.7 µM and 33 µM.
Regarding `O=C(NCc1ccnc(Cl)c1)n1c2c(c3ccc(OC(F)(F)F)cc31)CN(C/C=C/c1ccc(Cl)cc1)CC2` [Example 353, (E)-2-(3-(4-chlorophenyl)allyl)-N-((2-chloropyridin-4-yl)methyl)-7-(trifluoromethoxy)-1,2,3,4-tetrahydro-5H-pyrido[4,3-b]indole-5-carboxamide], the figures for the minimal effective concentration in the assay with D. immitis microfilariae and in the assay with Haemonchus contortus L3 were 18.2 µM and 1 µM, respectively.
Consider `O=C(NCc1ccnc(Cl)c1)n1c2c(c3c(OC(F)(F)F)cccc31)CN(C/C=C/c1ccc(Cl)cc1)CC2` [Example 354, (E)-2-(3-(4-chlorophenyl)allyl)-N-((2-chloropyridin-4-yl)methyl)-9-(trifluoromethoxy)-1,2,3,4-tetrahydro-5H-pyrido[4,3-b]indole-5-carboxamide], for which the minimal effective concentration with D. immitis microfilariae came to 18.2 µM; in the assay on Haemonchus contortus L3, 57.4 µM.
For `O=C(NCc1ccnc(Cl)c1)n1c2c(c3ccc(OC(F)(F)F)cc31)CN(C/C=C/c1ccc(Cl)c(Cl)c1)CC2` [Example 355, (E)-N-((2-chloropyridin-4-yl)methyl)-2-(3-(3,4-dichlorophenyl)allyl)-7-(trifluoromethoxy)-1,2,3,4-tetrahydro-5H-pyrido[4,3-b]indole-5-carboxamide], in that order: 69.1 µM and 1 µM.
The corresponding values for `O=C(NCc1ccnc(Cl)c1)n1c2c(c3c(OC(F)(F)F)cccc31)CN(C/C=C/c1ccc(F)cc1)CC2` [Example 357, (E)-N-((2-chloropyridin-4-yl)methyl)-2-(3-(4-fluorophenyl)allyl)-9-(trifluoromethoxy)-1,2,3,4-tetrahydro-5H-pyrido[4,3-b]indole-5-carboxamide] are 3.3 µM and 10 µM.
Consider `COc1ccc(/C=C/CN2CCc3c(c4ccc(OC(F)(F)F)cc4n3C(=O)NCc3ccnc(Cl)c3)C2)cc1` [Example 358, (E)-N-((2-chloropyridin-4-yl)methyl)-2-(3-(4-methoxyphenyl)allyl)-7-(trifluoromethoxy)-1,2,3,4-tetrahydro-5H-pyrido[4,3-b]indole-5-carboxamide], for which the minimal effective concentration turned out to be 7.6 µM with D. immitis microfilariae and 1.3 µM with Haemonchus contortus L3.
For `COc1ccc(/C=C/CN2CCc3c(c4c(OC(F)(F)F)cccc4n3C(=O)NCc3ccnc(Cl)c3)C2)cc1` [Example 359, (E)-N-((2-chloropyridin-4-yl)methyl)-2-(3-(4-methoxyphenyl)allyl)-9-(trifluoromethoxy)-1,2,3,4-tetrahydro-5H-pyrido[4,3-b]indole-5-carboxamide], the minimal effective concentration in the assay on D. immitis microfilariae and in the assay on Haemonchus contortus L3 was 3.3 µM throughout.
On to `O=C(NCc1ccnc(Cl)c1)n1c2c(c3ccc(OC(F)(F)F)cc31)CN(C/C=C/c1ccc(OC(F)(F)F)cc1)CC2` [Example 360, (E)-N-((2-chloropyridin-4-yl)methyl)-7-(trifluoromethoxy)-2-(3-(4-(trifluoro-methoxy)phenyl)allyl)-1,2,3,4-tetrahydro-5H-pyrido[4,3-b]indole-5-carboxamide], for which the minimal effective concentration with D. immitis microfilariae worked out at 13.6 µM; in the assay on Haemonchus contortus L3, 7.7 µM.
The corresponding values for `O=C(NCc1ccnc(Cl)c1)n1c2c(c3c(OC(F)(F)F)cccc31)CN(C/C=C/c1ccc(OC(F)(F)F)cc1)CC2` [Example 361, (E)-N-((2-chloropyridin-4-yl)methyl)-9-(trifluoromethoxy)-2-(3-(4-(trifluoro-methoxy)phenyl)allyl)-1,2,3,4-tetrahydro-5H-pyrido[4,3-b]indole-5-carboxamide] are 57.4 µM and over 100 µM.
On to `O=C(NCc1ccnc(Cl)c1)n1c2c(c3ccc(OC(F)(F)F)cc31)CN(C/C=C/c1ccc(C(F)(F)F)cc1)CC2` [Example 362, (E)-N-((2-chloropyridin-4-yl)methyl)-7-(trifluoromethoxy)-2-(3-(4-(trifluoro-methyl)phenyl)allyl)-1,2,3,4-tetrahydro-5H-pyrido[4,3-b]indole-5-carboxamide], for which the results for the minimal effective concentration in the assay with D. immitis microfilariae and in the assay on Haemonchus contortus L3 were 31.5 µM and over 100 µM, respectively.
As to `O=C(NCc1ccnc(Cl)c1)n1c2c(c3c(OC(F)(F)F)cccc31)CN(C/C=C/c1ccc(C(F)(F)F)cc1)CC2` [Example 363, (E)-N-((2-chloropyridin-4-yl)methyl)-9-(trifluoromethoxy)-2-(3-(4-(trifluoro-methyl)phenyl)allyl)-1,2,3,4-tetrahydro-5H-pyrido[4,3-b]indole-5-carboxamide], the minimal effective concentration with D. immitis microfilariae was 33 µM; in the assay with Haemonchus contortus L3, over 100 µM.
On to `O=C(NCc1ccnc(Cl)c1)n1c2c(c3ccc(OC(F)(F)F)cc31)CN(Cc1ccc3cc(Br)ccc3c1)CC2` [Example 364, 2-((6-bromonaphthalen-2-yl)methyl)-N-((2-chloropyridin-4-yl)methyl)-7-(trifluoromethoxy)-1,2,3,4-tetrahydro-5H-pyrido[4,3-b]indole-5-carboxamide], for which the minimal effective concentration is 1.8 µM with D. immitis microfilariae and over 100 µM with Haemonchus contortus L3.
For `O=C(NCc1ccnc(Cl)c1)n1c2c(c3ccc(OC(F)(F)F)cc31)CN(Cc1cc3ccc(Cl)cc3cn1)CC2` [Example 365, 2-((7-chloroisoquinolin-3-yl)methyl)-N-((2-chloropyridin-4-yl)methyl)-7-(trifluoromethoxy)-1,2,3,4-tetrahydro-5H-pyrido[4,3-b]indole-5-carboxamide], in that order: 4.4 µM and over 100 µM.
The corresponding values for `O=C(NCc1ccnc(Cl)c1)n1c2c(c3ccc(OC(F)(F)F)cc31)CN(Cc1ccc3nc(Cl)ccc3c1)CC2` [Example 367, N-((2-chloropyridin-4-yl)methyl)-2-((2-chloroquinolin-6-yl)methyl)-7-(trifluoromethoxy)-1,2,3,4-tetrahydro-5H-pyrido[4,3-b]indole-5-carboxamide] are over 100 µM and 10 µM.
Take `O=C(NCc1ccnc(Cl)c1)n1c2c(c3ccc(OC(F)(F)F)cc31)CN(Cc1ccc3cc(Cl)ccc3c1)CC2` [Example 368, 2-((6-chloronaphthalen-2-yl)methyl)-N-((2-chloropyridin-4-yl)methyl)-7-(trifluoromethoxy)-1,2,3,4-tetrahydro-5H-pyrido[4,3-b]indole-5-carboxamide]: the minimal effective concentration in the assay with D. immitis microfilariae was 43.5 µM; in the assay with Haemonchus contortus L3 it was over 100 µM.
As to `O=C(NCc1ccnc(F)c1)n1c2c(c3ccc(OC(F)(F)F)cc31)CN(C/C=C/c1ccc(Cl)c(F)c1)CC2` [Example 369, (E)-2-(3-(4-chloro-3-fluorophenyl)allyl)-N-((2-fluoropyridin-4-yl)methyl)-7-(trifluoromethoxy)-1,2,3,4-tetrahydro-5H-pyrido[4,3-b]indole-5-carboxamide], the minimal effective concentration with D. immitis microfilariae came to 10 µM; with Haemonchus contortus L3, 1 µM.
For `O=C(NCc1ccnc(F)c1)n1c2c(c3ccc(OC(F)(F)F)cc31)CN(C/C=C/c1ccc(Cl)cc1Cl)CC2` [Example 370, (E)-2-(3-(2,4-dichlorophenyl)allyl)-N-((2-fluoropyridin-4-yl)methyl)-7-(trifluoromethoxy)-1,2,3,4-tetrahydro-5H-pyrido[4,3-b]indole-5-carboxamide], the minimal effective concentration in the assay with D. immitis microfilariae came to 33 µM; in the assay on Haemonchus contortus L3, 3.3 µM.
As to `O=C(NCc1ccnc(F)c1)n1c2c(c3ccc(OC(F)(F)F)cc31)CN(C/C=C/c1ccc(Cl)cc1F)CC2` [Example 371, (E)-2-(3-(4-chloro-2-fluorophenyl)allyl)-N-((2-fluoropyridin-4-yl)methyl)-7-(trifluoromethoxy)-1,2,3,4-tetrahydro-5H-pyrido[4,3-b]indole-5-carboxamide], the values for the minimal effective concentration with D. immitis microfilariae and with Haemonchus contortus L3 were 24.5 µM and 1.3 µM, respectively.
Consider `N#Cc1ccc(/C=C/CN2CCc3c(c4ccc(OC(F)(F)F)cc4n3C(=O)NCc3ccnc(F)c3)C2)cc1F` [Example 372, (E)-2-(3-(4-cyano-3-fluorophenyl)allyl)-N-((2-fluoropyridin-4-yl)methyl)-7-(trifluoromethoxy)-1,2,3,4-tetrahydro-5H-pyrido[4,3-b]indole-5-carboxamide], for which the minimal effective concentration with D. immitis microfilariae is 5.7 µM; in the assay on Haemonchus contortus L3 it was 0.5 µM.
